According to patent US20050037069A1, “Solid and stable creatine/citric acid composition(s) and compositions carbohydrate(s) or hydrates thereof, method for the production and use thereof” (priority 2002, published 2005):

Experiment: Storage stability: creatinine (creatine decomposition product) content after storage
Assay type: physicochemical
Conditions: for Creatinine content / Observations: 40° C., 28 days
Experimental: A creatine-citric acid compound (3:1) (KC) as pure substance and mixtures of this compound (3:1) with 1, 5 and 10% by weight addition of a carbohydrate (CH) were stored for 28 days at 60° C. and then the contents of the creatine decomposition product creatinine were determined.

[1] = Addition: 1% by weight carbohydrate (CH)
[2] = Addition: 5% by weight carbohydrate (CH)
[3] = Addition: 10% by weight carbohydrate (CH)

Question: Which Creatinine content [1] does the source give for `CN(CC(=O)O)C(=N)N.CN(CC(=O)O)C(=N)N.CN(CC(=O)O)C(=N)N.O=C(O)CC(O)(CC(=O)O)C(=O)O` [KC without CH, creatine-citric acid compound (3:1)] here?
Answer: 770 ppm

Question: And the Observations [1]?
Answer: white

Question: What about the Creatinine content [2] of the same molecule?
Answer: 770 ppm

Question: What about the Observations [2] of the same molecule?
Answer: white

Question: And the Creatinine content [3]?
Answer: 770 ppm

Question: What about the Observations [3] of the same molecule?
Answer: white

Question: What about the “creatinine content, initial data” value (reference substance before storage, limit of detection) of the same molecule?
Answer: < 67 ppm
